# What was measured:
# [1] = test system: Cyperus serotinus, Rottb.; experiment: Preemergence weed control under flooded paddy conditions, CYPSE (Flatsedge); format: in vivo; details: for CYPSE herbicidal rating / herbicidal effect rating, CYPSE: preemergence, rated three to four weeks after treatment; for CYPSE: preemergence weeds, herbicidal effect rating 0-9, three to four weeks after treatment; on herbicidal effect rating, CYPSE: meaning of each grade not given here
# [2] = test system: Oryza sativa, (L.) Tebonnet; experiment: Rice tolerance to post-transplant applications under flooded paddy conditions (Example 187), ORYSAT (Rice, Tebonnet); details: for ORYSAT herbicidal rating (rice tolerance) / herbicidal effect rating, ORYSAT (rice tolerance) / herbicidal effect rating ORYSAT: rated three to four weeks after treatment; for ORYSAT: herbicidal effect rating 0-9, three to four weeks after treatment; on herbicidal effect rating ORYSAT: meaning of each grade not given here
# [3] = test system: Cyperus iria; experiment: Preemergence weed control under flooded paddy conditions, CYPIR (Rice Flatsedge); format: in vivo; details: flooded paddy; for CYPIR herbicidal rating / herbicidal effect rating, CYPIR: preemergence, rated three to four weeks after treatment; for CYPIR: preemergence weeds, herbicidal effect rating 0-9, three to four weeks after treatment; on herbicidal effect rating, CYPIR: meaning of each grade not given here
# [4] = test system: Echinochloa oryzoides (Ard.) Fritsch.; experiment: Preemergence weed control under flooded paddy conditions, ECHORC (Watergrass (Calif.)); format: in vivo; details: flooded paddy; for ECHORC herbicidal rating / herbicidal effect rating, ECHORC: preemergence, rated three to four weeks after treatment; for ECHORC: preemergence weeds, herbicidal effect rating 0-9, three to four weeks after treatment; on herbicidal effect rating, ECHORC: meaning of each grade not given here
# [5] = test system: Sagittaria pygmaea, L.; experiment: Preemergence weed control under flooded paddy conditions, SAGPY (Arrowhead (Pygmaea)); format: in vivo; details: flooded paddy; for SAGPY herbicidal rating / herbicidal effect rating, SAGPY: preemergence, rated three to four weeks after treatment; for SAGPY: preemergence weeds, herbicidal effect rating 0-9, three to four weeks after treatment; on herbicidal effect rating, SAGPY: meaning of each grade not given here
# [6] = test system: Monochoria vaginalis, Presl.; experiment: Preemergence weed control under flooded paddy conditions, MOOVA (Monochoria); format: in vivo; details: flooded paddy; for MOOVA herbicidal rating / herbicidal effect rating, MOOVA: preemergence, rated three to four weeks after treatment; for MOOVA: preemergence weeds, herbicidal effect rating 0-9, three to four weeks after treatment; on herbicidal effect rating, MOOVA: meaning of each grade not given here
smiles,measurement,setting,value
"C=CCOc1c(I)cc(C)cc1-c1nsc2ccc(-n3c(=O)cc(C(F)(F)F)n(C)c3=O)cc12 [Example 505, 2,4(1H,3H)-Pyrimidinedione, 3-{3-[6-(allyloxy)-5-iodo-m-tolyl]-1,2-benzisothiazol-5-yl}-1-methyl-6-(trifluoromethyl)-]",CYPSE herbicidal rating,[1]; 0.0620 kg/ha,0.0
same,CYPSE herbicidal rating,[1]; 0.1250 kg/ha,0.0
same,ORYSAT herbicidal rating (rice tolerance),[2]; 0.0320 kg/ha,4.0
same,ORYSAT herbicidal rating (rice tolerance),[2]; 0.0620 kg/ha,4.0
same,ORYSAT herbicidal rating (rice tolerance),[2]; 0.1250 kg/ha,4.0
same,ORYSAT herbicidal rating (rice tolerance),[2]; 0.2500 kg/ha,6.0
same,CYPIR herbicidal rating,[3]; 0.0320 kg/ha,0.0
same,CYPIR herbicidal rating,[3]; 0.1250 kg/ha,3.0
same,CYPIR herbicidal rating,[3]; 0.2500 kg/ha,4.0
same,ECHORC herbicidal rating,[4]; 0.0320 kg/ha,6.0
same,ECHORC herbicidal rating,[4]; 0.0620 kg/ha,6.0
same,ECHORC herbicidal rating,[4]; 0.1250 kg/ha,7.0
same,ECHORC herbicidal rating,[4]; 0.2500 kg/ha,9.0
same,SAGPY herbicidal rating,[5]; 0.0320 kg/ha,0.0
same,SAGPY herbicidal rating,[5]; 0.0620 kg/ha,2.0
same,SAGPY herbicidal rating,[5]; 0.1250 kg/ha,2.0
same,SAGPY herbicidal rating,[5]; 0.2500 kg/ha,4.0
same,MOOVA herbicidal rating,[6]; 0.0320 kg/ha,7.0
same,MOOVA herbicidal rating,[6]; 0.0620 kg/ha,7.0
same,MOOVA herbicidal rating,[6]; 0.1250 kg/ha,7.0
same,MOOVA herbicidal rating,[6]; 0.2500 kg/ha,8.0
"COc1ccc(C(C)C)cc1-c1nsc2ccc(-n3c(=O)cc(C(F)(F)F)n(C)c3=O)cc12 [Example 46, 3-[3-(5-Isopropyl-2-methoxyphenyl)-1,2-benzisothiazol-5-yl]-1-methyl-6-(trifluoromethyl)-2,4(1H,3H)-pyrimidinedione]","herbicidal effect rating, CYPSE",[1]; 0.0313 kg/ha,0.0
same,"herbicidal effect rating, CYPSE",[1]; 0.0625 kg/ha,0.0
same,"herbicidal effect rating, CYPSE",[1]; 0.2500 kg/ha,2.0
same,"herbicidal effect rating, ORYSAT (rice tolerance)",[2]; 0.0313 kg/ha,1.0
same,"herbicidal effect rating, ORYSAT (rice tolerance)",[2]; 0.0625 kg/ha,1.0
same,"herbicidal effect rating, ORYSAT (rice tolerance)",[2]; 0.1250 kg/ha,2.0
same,"herbicidal effect rating, ORYSAT (rice tolerance)",[2]; 0.2500 kg/ha,3.0
same,"herbicidal effect rating, CYPIR",[3]; 0.0313 kg/ha,2.0
same,"herbicidal effect rating, CYPIR",[3]; 0.0625 kg/ha,6.0
same,"herbicidal effect rating, CYPIR",[3]; 0.1250 kg/ha,9.0
same,"herbicidal effect rating, CYPIR",[3]; 0.2500 kg/ha,9.0
same,"herbicidal effect rating, ECHORC",[4]; 0.0313 kg/ha,9.0
same,"herbicidal effect rating, ECHORC",[4]; 0.0625 kg/ha,9.0
same,"herbicidal effect rating, ECHORC",[4]; 0.1250 kg/ha,9.0
same,"herbicidal effect rating, ECHORC",[4]; 0.2500 kg/ha,9.0
same,"herbicidal effect rating, SAGPY",[5]; 0.0313 kg/ha,0.0
same,"herbicidal effect rating, SAGPY",[5]; 0.0625 kg/ha,0.0
same,"herbicidal effect rating, SAGPY",[5]; 0.1250 kg/ha,2.0
same,"herbicidal effect rating, SAGPY",[5]; 0.2500 kg/ha,7.0
same,"herbicidal effect rating, MOOVA",[6]; 0.0313 kg/ha,9.0
same,"herbicidal effect rating, MOOVA",[6]; 0.0625 kg/ha,9.0
same,"herbicidal effect rating, MOOVA",[6]; 0.1250 kg/ha,9.0
same,"herbicidal effect rating, MOOVA",[6]; 0.2500 kg/ha,9.0
"Cc1ccccc1CS(=O)(=O)NC(=O)c1nsc2ccc(-n3c(=O)cc(C(F)(F)F)n(C)c3=O)cc12 [Example 465, 1,2-Benzisothiazole-3-carboxamide, 5-[3,6-dihydro-3-methyl-2,6-dioxo-4-(trifluoromethyl)-1(2H)-pyrimidinyl]-N-[(o-methylbenzyl)sulfonyl]-]",CYPSE herbicidal rating,[1]; 0.0320 kg/ha,0.0
same,CYPSE herbicidal rating,[1]; 0.0620 kg/ha,4.0
same,CYPSE herbicidal rating,[1]; 0.1250 kg/ha,7.0
same,CYPSE herbicidal rating,[1]; 0.2500 kg/ha,9.0
same,ORYSAT herbicidal rating (rice tolerance),[2]; 0.0320 kg/ha,2.0
same,ORYSAT herbicidal rating (rice tolerance),[2]; 0.0620 kg/ha,3.0
same,ORYSAT herbicidal rating (rice tolerance),[2]; 0.1250 kg/ha,4.0
same,ORYSAT herbicidal rating (rice tolerance),[2]; 0.2500 kg/ha,5.0
same,CYPIR herbicidal rating,[3]; 0.0320 kg/ha,0.0
same,CYPIR herbicidal rating,[3]; 0.0620 kg/ha,0.0
same,CYPIR herbicidal rating,[3]; 0.1250 kg/ha,3.0
same,CYPIR herbicidal rating,[3]; 0.2500 kg/ha,8.0
same,ECHORC herbicidal rating,[4]; 0.0320 kg/ha,6.0
same,ECHORC herbicidal rating,[4]; 0.0620 kg/ha,6.0
same,ECHORC herbicidal rating,[4]; 0.1250 kg/ha,7.0
same,ECHORC herbicidal rating,[4]; 0.2500 kg/ha,9.0
same,SAGPY herbicidal rating,[5]; 0.0320 kg/ha,2.0
same,SAGPY herbicidal rating,[5]; 0.0620 kg/ha,5.0
same,SAGPY herbicidal rating,[5]; 0.1250 kg/ha,5.0
same,SAGPY herbicidal rating,[5]; 0.2500 kg/ha,6.0
same,MOOVA herbicidal rating,[6]; 0.0320 kg/ha,2.0
same,MOOVA herbicidal rating,[6]; 0.0620 kg/ha,3.0
same,MOOVA herbicidal rating,[6]; 0.1250 kg/ha,6.0
same,MOOVA herbicidal rating,[6]; 0.2500 kg/ha,9.0
"COC(=O)COc1cc2c(cc1-c1nsc3ccc(-n4c(=O)cc(C(F)(F)F)n(C)c4=O)cc13)CCC2 [Example 434, Acetic acid, {{6-{5-[3,6-dihydro-3-methyl-2,6-dioxo-4-(trifluoromethyl)-1(2H)-pyrimidinyl]-1,2-benzisothiazol-3-yl}-5-indanyl}oxy}-, methyl ester]",CYPSE,[1]; 0.0320 kg/ha,4.0
same,CYPSE,[1]; 0.1250 kg/ha,4.0
same,CYPSE,[1]; 0.2500 kg/ha,7.0
same,ORYSAT,[2]; 0.0320 kg/ha,4.0
same,ORYSAT,[2]; 0.0620 kg/ha,6.0
same,ORYSAT,[2]; 0.1250 kg/ha,6.0
same,ORYSAT,[2]; 0.2500 kg/ha,7.0
same,CYPIR,[3]; 0.0320 kg/ha,3.0
same,CYPIR,[3]; 0.0620 kg/ha,3.0
same,CYPIR,[3]; 0.1250 kg/ha,7.0
same,CYPIR,[3]; 0.2500 kg/ha,8.0
same,ECHORC,[4]; 0.0320 kg/ha,6.0
same,ECHORC,[4]; 0.0620 kg/ha,7.0
same,ECHORC,[4]; 0.1250 kg/ha,7.0
same,ECHORC,[4]; 0.2500 kg/ha,9.0
same,SAGPY,[5]; 0.0320 kg/ha,4.0
same,SAGPY,[5]; 0.0620 kg/ha,4.0
same,SAGPY,[5]; 0.1250 kg/ha,5.0
same,SAGPY,[5]; 0.2500 kg/ha,6.0
same,MOOVA,[6]; 0.0320 kg/ha,9.0
same,MOOVA,[6]; 0.0620 kg/ha,9.0
same,MOOVA,[6]; 0.1250 kg/ha,9.0
same,MOOVA,[6]; 0.2500 kg/ha,9.0
"CN(C(=O)c1nsc2ccc(-n3c(=O)cc(C(F)(F)F)n(C)c3=O)cc12)S(C)(=O)=O [Example 367, 1,2-Benzisothiazole-3-carboxamide, 5-[3,6-dihydro-3-methyl-2,6-dioxo-4-(trifluoromethyl)-1(2H)-pyrimidinyl]-N-methyl-N-(methylsulfonyl)-]","herbicidal effect rating, CYPSE",[1]; Rate 0.0320 kg/ha,0.0
same,"herbicidal effect rating, CYPSE",[1]; Rate 0.0620 kg/ha,9.0
same,"herbicidal effect rating, CYPSE",[1]; Rate 0.1250 kg/ha,9.0
same,"herbicidal effect rating, CYPSE",[1]; Rate 0.2500 kg/ha,9.0
same,herbicidal effect rating ORYSAT,[2]; Rate 0.0320 kg/ha,0.0
same,herbicidal effect rating ORYSAT,[2]; Rate 0.0620 kg/ha,0.0
same,herbicidal effect rating ORYSAT,[2]; Rate 0.1250 kg/ha,5.0
same,herbicidal effect rating ORYSAT,[2]; Rate 0.2500 kg/ha,6.0
same,"herbicidal effect rating, CYPIR",[3]; Rate 0.0320 kg/ha,0.0
same,"herbicidal effect rating, CYPIR",[3]; Rate 0.0620 kg/ha,5.0
same,"herbicidal effect rating, CYPIR",[3]; Rate 0.1250 kg/ha,7.0
same,"herbicidal effect rating, CYPIR",[3]; Rate 0.2500 kg/ha,9.0
same,"herbicidal effect rating, ECHORC",[4]; Rate 0.0320 kg/ha,0.0
same,"herbicidal effect rating, ECHORC",[4]; Rate 0.0620 kg/ha,0.0
same,"herbicidal effect rating, ECHORC",[4]; Rate 0.1250 kg/ha,3.0
same,"herbicidal effect rating, ECHORC",[4]; Rate 0.2500 kg/ha,6.0
same,"herbicidal effect rating, SAGPY",[5]; Rate 0.0320 kg/ha,0.0
same,"herbicidal effect rating, SAGPY",[5]; Rate 0.0620 kg/ha,2.0
same,"herbicidal effect rating, SAGPY",[5]; Rate 0.1250 kg/ha,5.0
same,"herbicidal effect rating, SAGPY",[5]; Rate 0.2500 kg/ha,9.0
same,"herbicidal effect rating, MOOVA",[6]; Rate 0.0320 kg/ha,9.0
same,"herbicidal effect rating, MOOVA",[6]; Rate 0.0620 kg/ha,9.0
same,"herbicidal effect rating, MOOVA",[6]; Rate 0.1250 kg/ha,9.0
same,"herbicidal effect rating, MOOVA",[6]; Rate 0.2500 kg/ha,9.0
"CCCCCCCCCCCCS(=O)(=O)NC(=O)c1nsc2ccc(-n3c(=O)cc(C(F)(F)F)n(C)c3=O)cc12 [Example 358, 1,2-Benzisothiazole-3-carboxamide, 5-[3,6-dihydro-3-methyl-2,6-dioxo-4-(trifluoromethyl)-1(2H)-pyrimidinyl]-N-(dodecylsulfonyl)-]","herbicidal effect rating, CYPSE",[1]; Rate 0.0320 kg/ha,0.0
same,"herbicidal effect rating, CYPSE",[1]; Rate 0.0620 kg/ha,0.0
same,"herbicidal effect rating, CYPSE",[1]; Rate 0.1250 kg/ha,0.0
same,"herbicidal effect rating, CYPSE",[1]; Rate 0.2500 kg/ha,0.0
same,herbicidal effect rating ORYSAT,[2]; Rate 0.0320 kg/ha,2.0
same,herbicidal effect rating ORYSAT,[2]; Rate 0.0620 kg/ha,3.0
same,herbicidal effect rating ORYSAT,[2]; Rate 0.1250 kg/ha,3.0
same,herbicidal effect rating ORYSAT,[2]; Rate 0.2500 kg/ha,3.0
same,"herbicidal effect rating, CYPIR",[3]; Rate 0.0320 kg/ha,0.0
same,"herbicidal effect rating, CYPIR",[3]; Rate 0.0620 kg/ha,0.0
same,"herbicidal effect rating, CYPIR",[3]; Rate 0.1250 kg/ha,0.0
same,"herbicidal effect rating, CYPIR",[3]; Rate 0.2500 kg/ha,7.0
same,"herbicidal effect rating, ECHORC",[4]; Rate 0.0320 kg/ha,4.0
same,"herbicidal effect rating, ECHORC",[4]; Rate 0.0620 kg/ha,5.0
same,"herbicidal effect rating, ECHORC",[4]; Rate 0.1250 kg/ha,5.0
same,"herbicidal effect rating, ECHORC",[4]; Rate 0.2500 kg/ha,5.0
same,"herbicidal effect rating, SAGPY",[5]; Rate 0.0320 kg/ha,5.0
same,"herbicidal effect rating, SAGPY",[5]; Rate 0.0620 kg/ha,5.0
same,"herbicidal effect rating, SAGPY",[5]; Rate 0.1250 kg/ha,6.0
same,"herbicidal effect rating, SAGPY",[5]; Rate 0.2500 kg/ha,6.0
same,"herbicidal effect rating, MOOVA",[6]; Rate 0.0320 kg/ha,9.0
same,"herbicidal effect rating, MOOVA",[6]; Rate 0.0620 kg/ha,9.0
same,"herbicidal effect rating, MOOVA",[6]; Rate 0.1250 kg/ha,9.0
same,"herbicidal effect rating, MOOVA",[6]; Rate 0.2500 kg/ha,9.0
